Measured values from ChEMBL document CHEMBL1157294, “Rautandiols A and B, pterocarpans and cytotoxic constituents from Neorautanenia mitis” (J Nat Prod, 2006).
Converted amounts (≈) assume the structure as drawn.

Columns and labels:
A549 = experiment: Cytotoxicity against human A549 cells after 3 days by SRB assay; format: functional, cell-based; conditions: A549, 72 h
MCF7 = experiment: Cytotoxicity against human MCF7 cells after 3 days by SRB assay; format: functional, cell-based; conditions: MCF7, 72 h

Structure (SMILES)	IC50 (A549)	IC50 (MCF7)
COc1cc(OC)c(-c2coc3cc4occc4cc3c2=O)cc1OC [ISOELLIPTOL]	1.6 µg/mL (≈ 4.54 µM)	0.8 µg/mL (≈ 2.27 µM)
CC(C)(O)C1Cc2cc3c(cc2O1)OC[C@H]1c2ccc(O)cc2O[C@@H]31 (some centres undefined) [RAUTANDIOL B]	> 5 µg/mL	> 5 µg/mL
C=C(C)[C@H]1Cc2c(ccc3c2O[C@@H]2COc4cc(OC)c(OC)cc4[C@@H]2C3=O)O1 [ROTENONE]	0.04 µg/mL (≈ 0.101 µM)	0.008 µg/mL (≈ 0.0203 µM)
c1cc2cc3c(cc2o1)OC[C@H]1c2cc4c(cc2O[C@@H]31)OCO4 [NEODULIN]	> 5 µg/mL	> 5 µg/mL
C=C(C)[C@H]1Cc2c(ccc3c(=O)c4c(oc23)COc2cc(OC)c(OC)cc2-4)O1 [DEHYDROROTENONE]	> 5 µg/mL	> 5 µg/mL
COc1cc2c(cc1-c1cc3cc4ccoc4cc3oc1=O)OCO2 [PACHYRRIZINE]	> 5 µg/mL	3.6 µg/mL (≈ 10.7 µM)
CC1(C)Oc2cc3c(cc2CC1O)[C@@H]1Oc2cc(O)ccc2[C@@H]1CO3 (some centres undefined) [RAUTANDIOL A]	> 5 µg/mL	> 5 µg/mL
